# Measured values published in ChEMBL document CHEMBL3233003, “Chromodomain antagonists that target the polycomb-group methyllysine reader protein chromobox homolog 7 (CBX7)” (J Med Chem, 2014).
# pIC50: −log10 of the molar value. Starred links: 1 amine or outer side, 2 acyl side, 3 side chain; linkers in the order of their positions; H or OH if unused. Non-standard residues stand in square brackets, D forms with d. Residues, ends and D or L forms follow the SMILES beside them. *: point of attachment. Benzoyl(4-CO2Me) = COC(=O)c1ccc(C(=O)*)cc1; Benzoyl(4-COOH) = O=C(O)c1ccc(C(=O)*)cc1; Lys(Me3) = C[N+](C)(C)CCCC[C@H](N)C(=O)O; Ethylenediamine = C(CN[*:2])N[*:1]; Gly(cPent) = N[C@H](C(=O)O)C1CCCC1; Hydrocinnamoyl = O=C(CCc1ccccc1)*; X3 = COC(=O)c1ccc(S(=O)(=O)*)cc1; Gly(cPr) = N[C@H](C(=O)O)C1CC1; Phg = N[C@H](C(=O)O)c1ccccc1; Nicotinoyl = O=C(c1cccnc1)*; Tos = Cc1ccc(S(=O)(=O)*)cc1; X5 = c1ccc2[nH]c(N*)nc2c1; X9 = O[C@H]1CCCC[C@@H]1N*; Nle = CCCC[C@H](N)C(=O)O; X7 = O=S(=O)(c1cccnc1)*; Boc = CC(C)(C)OC(=O)*; Bz = O=C(c1ccccc1)*; X8 = OCC1(N*)CCCC1; NHPr = CCCN*
# Target: T1, Chromobox protein homolog 7 (Homo sapiens, UniProt O95931)
# T1 sequence (O95931 whole entry): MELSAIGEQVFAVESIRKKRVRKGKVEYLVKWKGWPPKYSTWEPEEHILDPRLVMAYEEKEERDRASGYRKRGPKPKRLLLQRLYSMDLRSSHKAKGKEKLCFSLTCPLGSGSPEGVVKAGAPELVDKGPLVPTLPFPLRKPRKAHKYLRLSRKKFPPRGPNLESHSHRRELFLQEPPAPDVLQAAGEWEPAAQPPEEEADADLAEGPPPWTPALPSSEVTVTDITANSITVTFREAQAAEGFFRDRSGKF
# Assay: Displacement of FITC-labeled H3K27me3 from CBX7 (unknown origin) after 15 mins by fluorescence polarization assay
row,Structure (SMILES),pIC50
1,CC(=O)N[C@@H](Cc1ccccc1)C(=O)N[C@@H](C)C(=O)N[C@@H](CC(C)C)C(=O)N[C@@H](CCCC[N+](C)(C)C)C(=O)N[C@H]1CCCC[C@@H]1O (Ac-FAL[Lys(Me3)]-X9),< 3.60
2,COC(=O)c1ccc(C(=O)N[C@@H](Cc2ccccc2)C(=O)N[C@@H](C)C(=O)N[C@@H](CC(C)C)C(=O)N[C@@H](CCCC[N+](C)(C)C)C(=O)N[C@@H](CO)C(N)=O)cc1 ({Benzoyl(4-CO2Me)}-FAL[Lys(Me3)]S-NH2),5.20
3,CC(=O)N[C@@H](Cc1ccccc1)C(=O)N[C@@H](C)C(=O)N[C@H](C(=O)N[C@@H](CCCC[N+](C)(C)C)C(=O)N[C@@H](CO)C(N)=O)C1CCCC1 (Ac-FA[Gly(cPent)][Lys(Me3)]S-NH2),5.22
4,COC(=O)c1ccc(S(=O)(=O)N[C@@H](Cc2ccccc2)C(=O)N[C@@H](C)C(=O)N[C@@H](CC(C)C)C(=O)N[C@@H](CCCC[N+](C)(C)C)C(=O)N[C@@H](CO)C(N)=O)cc1 (X3-FAL[Lys(Me3)]S-NH2),4.24
5,CC(=O)N[C@@H](Cc1ccccc1)C(=O)N[C@@H](C)C(=O)N[C@@H](CC(C)C)C(=O)N[C@@H](CCCC[N+](C)(C)C)C(=O)NC1(CO)CCCC1 (Ac-FAL[Lys(Me3)]-X8),< 3.60
6,CC(C)C[C@H](NC(=O)[C@H](C)NC(=O)CNC(=O)c1ccccc1)C(=O)N[C@@H](CCCC[N+](C)(C)C)C(=O)N[C@@H](CO)C(N)=O (Bz-GAL[Lys(Me3)]S-NH2),4.24
7,CC(C)C[C@H](NC(=O)[C@H](C)NC(=O)[C@H](Cc1ccccc1)NC(=O)c1ccc(C(=O)O)cc1)C(=O)N[C@@H](CCCC[N+](C)(C)C)C(=O)N[C@@H](CO)C(N)=O ({Benzoyl(4-COOH)}-FAL[Lys(Me3)]S-NH2),5.21
8,CC(=O)N[C@@H](Cc1ccccc1)C(=O)N[C@@H](C)C(=O)N[C@@H](CC(C)C)C(=O)N[C@@H](CCCC[N+](C)(C)C)C(=O)NCCNC(=O)OC(C)(C)C (Ac-FAL[Lys(Me3)]-{Ethylenediamine-Boc}),3.98
9,Cc1ccc(S(=O)(=O)N[C@@H](Cc2ccccc2)C(=O)N[C@@H](C)C(=O)N[C@@H](CC(C)C)C(=O)N[C@@H](CCCC[N+](C)(C)C)C(=O)N[C@@H](CO)C(N)=O)cc1 (Tos-FAL[Lys(Me3)]S-NH2),< 3.60
10,CC(C)C[C@H](NC(=O)[C@H](C)NC(=O)c1cccnc1)C(=O)N[C@@H](CCCC[N+](C)(C)C)C(=O)N[C@@H](CO)C(N)=O (Nicotinoyl-AL[Lys(Me3)]S-NH2),4.04
11,CC(=O)N[C@@H](Cc1ccccc1)C(=O)N[C@@H](C)C(=O)N[C@@H](CC(C)C)C(=O)N[C@@H](CCCC[N+](C)(C)C)C(=O)O (Ac-FAL[Lys(Me3)]-OH),3.25
12,CC(=O)N[C@@H](Cc1ccccc1)C(=O)N[C@@H](C)C(=O)N[C@@H](CC(C)C)C(=O)N[C@@H](CCCC[N+](C)(C)C)C(=O)Nc1nc2ccccc2[nH]1 (Ac-FAL[Lys(Me3)]-X5),4.46
13,CC(C)C[C@H](NC(=O)[C@H](C)NS(=O)(=O)c1cccnc1)C(=O)N[C@@H](CCCC[N+](C)(C)C)C(=O)N[C@@H](CO)C(N)=O (X7-AL[Lys(Me3)]S-NH2),< 3.60

# The remaining lines, values ahead:
row,pIC50,Structure (SMILES)
1,5.07,CC(=O)N[C@@H](Cc1ccc(O)cc1)C(=O)N[C@@H](C)C(=O)N[C@@H](CC(C)C)C(=O)N[C@@H](CCCC[N+](C)(C)C)C(=O)N[C@@H](CO)C(N)=O (Ac-YAL[Lys(Me3)]S-NH2)
2,4.68,CC(=O)N[C@@H](Cc1ccccc1)C(=O)N[C@@H](C)C(=O)N[C@H](C(=O)N[C@@H](CCCC[N+](C)(C)C)C(=O)N[C@@H](CO)C(N)=O)C1CC1 (Ac-FA[Gly(cPr)][Lys(Me3)]S-NH2)
3,4.64,CCCC[C@H](NC(=O)[C@H](C)NC(=O)[C@H](Cc1ccccc1)NC(C)=O)C(=O)N[C@@H](CCCC[N+](C)(C)C)C(=O)N[C@@H](CO)C(N)=O (Ac-FA[Nle][Lys(Me3)]S-NH2)
4,5.24,CC[C@H](C)[C@H](NC(=O)[C@H](C)NC(=O)[C@H](Cc1ccccc1)NC(C)=O)C(=O)N[C@@H](CCCC[N+](C)(C)C)C(=O)N[C@@H](CO)C(N)=O (Ac-FAI[Lys(Me3)]S-NH2)
5,3.99,CCCNC(=O)[C@H](CCCC[N+](C)(C)C)NC(=O)[C@H](CC(C)C)NC(=O)[C@H](C)NC(=O)[C@H](Cc1ccccc1)NC(C)=O (Ac-FAL[Lys(Me3)]-NHPr)
6,4.59,CC(C)C[C@H](NC(=O)[C@H](C)NC(=O)CCc1ccccc1)C(=O)N[C@@H](CCCC[N+](C)(C)C)C(=O)N[C@@H](CO)C(N)=O (Hydrocinnamoyl-AL[Lys(Me3)]S-NH2)
7,3.92,CCCC[C@H](NC(=O)[C@H](Cc1ccccc1)NC(C)=O)C(=O)N[C@@H](CC(C)C)C(=O)N[C@@H](CCCC[N+](C)(C)C)C(=O)N[C@@H](CO)C(N)=O (Ac-F[Nle]L[Lys(Me3)]S-NH2)
8,4.66,CC(=O)N[C@@H](Cc1ccccc1)C(=O)N[C@@H](C)C(=O)N[C@@H](CC(C)C)C(=O)N[C@@H](CCCC[N+](C)(C)C)C(=O)NCCN (Ac-FAL[Lys(Me3)]-Ethylenediamine)
9,4.59,CC(=O)N[C@H](C(=O)N[C@@H](C)C(=O)N[C@@H](CC(C)C)C(=O)N[C@@H](CCCC[N+](C)(C)C)C(=O)N[C@@H](CO)C(N)=O)c1ccccc1 (Ac-[Phg]AL[Lys(Me3)]S-NH2)
